Assay [1] has as its target T1, alkaline phosphatase (calf intestine; Biozyme) (Bos taurus, UniProt P19111).
T1 construct: purchased Biozyme; host or cells: calf intestine
Description: Total dephosphorylation, chemiluminescence decay (Example XIII). The format is biochemical. The following applies: 30° C., carbonate/bicarbonate buffer. The procedure: A comparison of the total luminescence emission from AMPPD and from the corresponding 1,2-dioxetanes whose adamant-2'-ylidene groups are monosubstituted with hydroxy (A and B isomers), chloro and bromo groups was made by carrying out total dephosphorylation experiments on each of these compounds.
An aqueous solution of the 1,2-dioxetane (4.0 mm) in 0.05M sodium carbonate/sodium bicarbonate containing 1 mM magnesium chloride was prepared and then equilibrated at 30° C. Ten μl of a 7.64×10M aqueous solution of alkaline phosphatase (calf intestine; Biozyme) was then added, and the chemiluminescence from the resulting solution was recorded using a Turner Model 20E luminometer (Turner Instruments; Sunnyvale, Calif.).
The rates of chemiluminescence decay for each of the five compounds in question, expressed in relative light units (RLU's) per minute, are given in the following table.

For assay [2], the target named is T2, alkaline phosphatase-labeled DNA probe (Bos taurus, UniProt P19111).
T2 construct: purchased Tropix, Inc
T2 sequence (P19111 20-506 limits assumed): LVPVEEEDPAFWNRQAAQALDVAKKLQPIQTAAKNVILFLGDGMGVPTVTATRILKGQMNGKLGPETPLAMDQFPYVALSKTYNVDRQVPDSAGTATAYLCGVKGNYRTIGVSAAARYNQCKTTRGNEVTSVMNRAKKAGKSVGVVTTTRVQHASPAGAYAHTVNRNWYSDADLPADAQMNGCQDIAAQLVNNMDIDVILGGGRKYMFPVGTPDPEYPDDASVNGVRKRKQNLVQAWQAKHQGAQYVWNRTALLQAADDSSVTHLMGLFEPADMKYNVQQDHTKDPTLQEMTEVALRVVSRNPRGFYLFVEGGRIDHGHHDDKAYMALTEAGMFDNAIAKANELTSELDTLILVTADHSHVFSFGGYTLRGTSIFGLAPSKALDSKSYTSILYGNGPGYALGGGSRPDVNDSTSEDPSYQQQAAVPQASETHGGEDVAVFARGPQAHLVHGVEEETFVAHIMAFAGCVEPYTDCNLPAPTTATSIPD
T2 sequence (P02701 25-152 partner): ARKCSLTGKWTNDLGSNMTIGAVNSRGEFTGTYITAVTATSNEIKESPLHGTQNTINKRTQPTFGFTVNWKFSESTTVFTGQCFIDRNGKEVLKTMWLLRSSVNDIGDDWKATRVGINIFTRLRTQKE
Description: Alkaline phosphatase-labeled DNA probe detection in membrane with and without BDMQ blocking step (Example XV). The following applies: for Detection limit (in picograms DNA) 5. min. exp.: five minute exposure 40 minutes after dioxetane addition; for Detection limit (in picograms DNA) 1 min. exp.: one minute exposure 77 minutes after dioxetane addition. As to the method:
pBr 322 plasmid (4700 bp) was subjected to a nick translation process using a Trans-Light kit (Tropix, Inc., Bedford, Mass.) to generate a mixture of biotinylated single stranded polynucleotides of 200-2000 bps in length.
This mixture was dotted onto a dry BIODYNE A membrane as five parallel columns of dots of the following concentrations:
The membrane was subjected to ultraviolet irradiation (UVP Mineral Light; UVP, San Gabriel, Calif.) for 3 minutes to fix the DNA to the surface of the membrane, then air dried. Next, the membrane was blocked in 0.2% casein/0.1% Tween 20 detergent in PBS for 1 hour, following which 1/5000 diluted avidin-alkaline phosphatase conjugate (Tropix, Inc.) in 0.2% casein in PBS was added. The membrane was then incubated for 30 minutes, washed three times (for 5 minutes each time) in 0.2% casein/0.1% Tween 20 detergent in PBS and washed once for five minutes in aqueous 0.1M diethanolamine containing 1 mm magnesium chloride and 0.02% sodium azide, pH 10.0 (substrate buffer).
Next, the five columns of rows of dots 1-5 were individually cut from the membrane ("strips 1-5"), as were the five columns of rows of dots 6-10 ("strips 6-10"). Strips 1-5 were washed with substrate buffer for 30 minutes. Strips 6-10 were blocked in 0.1% BDMQ in substrate buffer for 30 minutes. Both sets of strips were then incubated for 5 minutes in substrate buffer, then individually incubated for five minutes in aqueous solutions (0.25 mM) of 1,2-dioxetanes as indicated below:
All strips were then placed in camera luminometers and exposed on Polaroid Type 612 instant black and white film.

For assay [3], the target named is T3, alkaline phosphatase (Bos taurus, UniProt P19111). Description: Alkaline phosphatase detection limits, Wilj microtiter plate luminometer (Example XXVI). The following applies: 23 MINUTE INCUBATION
T3 sequence (P19111 20-506 limits assumed): as the sequence (P19111 20-506 limits assumed) above
The class given is biochemical.

In assay [4] the target is T4, biotinylated pBR322-35mer detected with Avidix-AP (Bos taurus, UniProt P19111).
T4 construct: purchased Tropix, Inc
T4 sequence (P19111 20-506 limits assumed): as above
Description: Half-time to maximum chemiluminescence, biotinylated DNA on membranes (Example XXVIII). The following applies: 12.5 pg DNA, […] dioxetane in 0.1 M DEA, pH 10.0. The procedure:
The performance of AMPPD and Cl-AMPPD on a nylon membrane was compared as follows: 12.5 picograms of biotinylated-pBR322-(35 mer) in 1 μL was spotted onto dry nylon membrane and crosslinked to the membrane with UV light. The membrane subsequently wetted with 1×SSC buffer, incubated with 0.2% casein, 0.1% Tween-20 in phosphate buffered saline (PBS) for 1 hour at room temperature, washed 4 times with 0.3% Tween-20 in PBS, washed twice in Substrate Buffer (0.1 M diethanolamine, 1 mM MgCl2, pH 10.0), and incubated for 5 minutes in 0.25 mM dioxetane in Substrate Buffer. In this fashion, two membranes: one incubated with AMPPD and the second with Cl-AMPPD, were generated. The membranes were then sealed in plastic, attached to the outside of a 12×75 mm glass test tube, and inserted into Turner Model 20-E luminometer equipped with a side-mounted photomultiplier detector and thermally equilibrated to 30° C. The chemiluminescence intensity was then monitored for 20-24 hours.
The half-times to the maximum chemiluminescence intensity obtained with AMPPD and Cl-AMPPD on PVDF and nylon membranes were calculated from data collected as described in Example XXVII, for the nylon membrane. For PVDF membrane, the revised protocol included the second Substrate Buffer wash followed by the membrane incubation for 5 minutes at room temperature in the Tropix NitroBlock™ reagent and a subsequent wash with Substrate Buffer prior to the dioxetane substrates addition. The half-times to the maximum chemiluminescent signal were calculated from the a plot of the logarithm (maximum chnemiluminescent signal minus signal at each time point) as a function of time and is shown in Table 9.
12.5 pg of biotinylated pBR322-35mer was detected with Avidix-AP and 0.24 mM dioxetane in 0.1 M DEA, pH 10.0.

Assay [5] addresses T3, alkaline phosphatase. The assay is described as follows: Chemiluminescent signal-to-noise levels with enhancers (Example XXIV). The format is biochemical. As to the method: The chemiluminescent signal to noise levels were obtained with 2.83×10^-13 M alkaline phosphatase and various R-substituted adamantyl 1,2-dioxetane phosphates in the presence of several enhancers. All measurements were performed in a Berthold LB952T luminometer at room temperature. First, the background chemiluminescence levels (signal in the absence of the enzyme) of each sample (in triplicate) were measured. Each sample consisted of 0.2 μmoles of dioxetane in 0.45 ml of 0.1 M diethanolamine, 1 mM MgCl2, pH 10.0, without or with 1 mg/ml of the indicated enhancer. Tubes were inserted into the luminometer and the luminescence intensity was measured. Next, the tubes were removed from the luminometer and alkaline phosphatase (50 μl containing 1.415×10^-16 moles) was added to each tube, and the luminescence intensity was measured at 5 and 20 minutes after substrate addition. The final concentration of dioxetane in each tube was 0.4 mM.
All enhancers used at 1 mg/ml in 0.1 M DEA, pH 10. Alkaline phosphatase concentration=2.83×10^-13 M. Measurements performed in a Berthold LB952T Luminometer.

The mark [6] stands for this setting: BDMQ blocking step, listed as OH-Adamant-2'-ylidene (A isomer).
Setting [7] is: BDMQ blocking step, listed as OH-Adamant-2'-ylidene (B isomer).
Setting [8] is: PVDF membrane treated with NitroBlock.
The mark [9] stands for this setting: enhancer NONE, 5 min, alkaline phosphatase 2.83×10^-13 M.

T1 sequence (P19111 20-506 limits assumed): as above

`COC1(c2cccc(OP(=O)(O)O)c2)OOC12C1CC3CC2CC(O)(C3)C1` (single isomer, unassigned) [A-OH-AMPPD, disodium 3-(4-methoxyspiro-[1,2-dioxetane-3,2'-(5'-hydroxy)tricyclo[3.3.1.1^3,7]decan]-4-yl)phenyl phosphate]: the “Total Decay Time” value in assay [1] (listed as OH-Adamant-2'-ylidene (A isomer)) was 9 min. Further, in assay [1] (RLU's per minute, listed as OH-Adamant-2'-ylidene (A isomer)), the “Decay Rate I” value is listed as 1.3 RLU's per minute. Further, the results for the “Detection limit (in picograms DNA) 5. min. exp.” value in assay [2] (setting [6]) and in assay [2] (no BDMQ blocking step) were 0.625 picograms DNA and 5.000 picograms DNA, respectively. Besides, the “Detection limit (in picograms DNA) 1 min. exp.” value in assay [2] (setting [6]) is 2.500 picograms DNA; in assay [2] (no BDMQ blocking step, listed as OH-Adamant-2'-ylidene (A isomer)), 10.000 picograms DNA. Moreover, the entries for the “Alkaline phosphatase detection limit (at 2× background)” value (shortened to “Alkaline phosphatase detection limit”) in assay [3] (SAPPHIRE II) and in assay [3] (SAPPHIRE) were 0.0014 pM and 0.0015 pM, respectively.
Turning to `COC1(c2cccc(OP(=O)(O)O)c2)OOC12C1CC3CC2CC(O)(C3)C1` (single isomer, unassigned) [B-OH-AMPPD, disodium 3-(4-methoxyspiro-[1,2-dioxetane-3,2'-(5'-hydroxy)tricyclo[3.3.1.1^3,7]decan]-4-yl)phenyl phosphate], the “Total Decay Time” value in assay [1] (listed as OH-Adamant-2'-ylidene (B isomer)) amounted to 10 min. Moreover, the “Decay Rate I” value in assay [1] (RLU's per minute, listed as OH-Adamant-2'-ylidene (B isomer)) is 1.5 RLU's per minute. The “Detection limit (in picograms DNA) 5. min. exp.” value in assay [2] (setting [7]) is on record as 1.250 picograms DNA; in assay [2] (no BDMQ blocking step) it was 5.000 picograms DNA. For the same compound, the “Detection limit (in picograms DNA) 1 min. exp.” value in assay [2] (setting [7]) is reported as 5.000 picograms DNA; in assay [2] (no BDMQ blocking step, listed as OH-Adamant-2'-ylidene (B isomer)), 20.000 picograms DNA.
With `COC1(c2cccc(OP(=O)(O)O)c2)OOC12C1CC3CC(C1)CC2C3` (stereo not drawn) [AMPPD, 3-(4-methoxyspiro[1,2-dioxetane-3,2'-triyclo[3.3.1.1^3,7]decan]-4-yl)phenyl phosphate, reference compound], in assay [1], the “Total Decay Time” value came to 60 min. Also, in assay [1] (RLU's per minute), the “Decay Rate I” value stood at 0.1 RLU's per minute. The “Decay Rate II” value in assay [1] (RLU's per minute) is 0.3 RLU's per minute. Besides, the “Decay Rate III” value in assay [1] (RLU's per minute) is reported as 0.8 RLU's per minute. Besides, the entries for the “Detection limit (in picograms DNA) 5. min. exp.” value in assay [2] (BDMQ blocking step) and in assay [2] (no BDMQ blocking step) were 0.625 picograms DNA and 2.500 picograms DNA, respectively. The “Detection limit (in picograms DNA) 1 min. exp.” value in assay [2] (BDMQ blocking step) is listed as 1.250 picograms DNA; in assay [2] (no BDMQ blocking step), 5.000 picograms DNA. Also, the “HALF-TIME TO MAXIMUM CHEMILUMINESCENCE” value was 99.83 min in assay [4] (Nylon membrane) and 49.51 min in assay [4] (setting [8]). The “Alkaline phosphatase detection limit” value in assay [3] (SAPPHIRE II) is 0.0013 pM; in assay [3] (SAPPHIRE), 0.0019 pM. The chemiluminescent signal-to-noise level in assay [5] (EMERALD 1 1 mg/ml, 5 min) is on record as 109; in assay [5] (EMERALD 1 1 mg/ml, 20 min), 282; in assay [5] (EMERALD 2 1 mg/ml, 5 min) it was 113; in assay [5] (EMERALD 2 1 mg/ml, 20 min), 291; in assay [5] (SAPPHIRE 1 1 mg/ml, 5 min) it was 159; in assay [5] (SAPPHIRE 1 1 mg/ml, 20 min) it was 364. The chemiluminescent signal-to-noise level in assay [5] (SAPPHIRE 2 1 mg/ml, 5 min) was 192; in assay [5] (SAPPHIRE 2 1 mg/ml, 20 min), 434; in assay [5] (setting [9]) it was 21; in assay [5] (enhancer NONE, 20 min) it was 34.
`COC1(c2cccc(OP(=O)(O)O)c2)OOC12C1CC3CC2CC(Cl)(C3)C1` (stereo not drawn) [Cl-AMPPD, disodium 3-(4-methoxyspiro-[1,2-dioxetane-3,2'-(5'-chloro)tricyclo[3.3.1.1^3,7]decan]-4-yl) phenyl phosphate]: the “Total Decay Time” value in assay [1] was 15 min. In addition, the “Decay Rate I” value in assay [1] (RLU's per minute) is 1.2 RLU's per minute. The “Decay Rate II” value in assay [1] (RLU's per minute) is on record as 5.5 RLU's per minute. Besides, the “Detection limit (in picograms DNA) 5. min. exp.” value in assay [2] (BDMQ blocking step) was found to be 0.313 picograms DNA; in assay [2] (no BDMQ blocking step), 1.250 picograms DNA. Besides, the results for the “Detection limit (in picograms DNA) 1 min. exp.” value in assay [2] (BDMQ blocking step) and in assay [2] (no BDMQ blocking step) were 0.313 picograms DNA and 1.250 picograms DNA, respectively. Moreover, the “HALF-TIME TO MAXIMUM CHEMILUMINESCENCE” value in assay [4] (Nylon membrane) was determined as 47.48 min; in assay [4] (setting [8]) it was 14.20 min. For the same compound, the “Alkaline phosphatase detection limit” value in assay [3] (SAPPHIRE II) was determined as 0.00021 pM; in assay [3] (SAPPHIRE), 0.000705 pM. Besides, the chemiluminescent signal-to-noise level in assay [5] (EMERALD 1 1 mg/ml, 5 min) was found to be 583; in assay [5] (EMERALD 1 1 mg/ml, 20 min), 964; in assay [5] (EMERALD 2 1 mg/ml, 5 min), 839; in assay [5] (EMERALD 2 1 mg/ml, 20 min), 1280; in assay [5] (SAPPHIRE 1 1 mg/ml, 5 min), 577; in assay [5] (SAPPHIRE 1 1 mg/ml, 20 min), 827. For the same compound, the chemiluminescent signal-to-noise level is 1319 in assay [5] (SAPPHIRE 2 1 mg/ml, 5 min); 2221 in assay [5] (SAPPHIRE 2 1 mg/ml, 20 min); 82 in assay [5] (setting [9]); 98 in assay [5] (enhancer NONE, 20 min).
